Assays:
[1] = Competitive antagonist activity at alpha-adrenergic receptor in New Zealand rabbit aorta assessed as inhibition of methoxamine-induced contraction incubated for 1 hr; type: tissue-based, Oryctolagus cuniculus
[2] = target: Adrenergic receptor alpha; test: Displacement of [3H]dihydroazapetine from alpha-adrenoreceptor in rat vas deferens

Structure (SMILES)	pA2 [1]	pKd [2]
CCN(CC)C[C@H]1COc2ccccc2O1	5.6	6.21
CCN(CC)C[C@@H]1COc2ccccc2O1	5.26	–
c1ccc2c(c1)OC[C@H](CN1CCCCC1)O2	7.12	–
c1ccc2c(c1)OC[C@@H](CN1CCCCC1)O2	5.86	–
c1ccc2c(c1)OC[C@H](CN1CCN(C[C@H]3COc4ccccc4O3)CC1)O2	7.66	6.85
c1ccc2c(c1)OC[C@@H](CN1CCN(C[C@@H]3COc4ccccc4O3)CC1)O2	6.38	6.25
c1ccc2c(c1)OCC(CN1CCN(CC3COc4ccccc4O3)CC1)O2 (stereo not given)	7.53	–

Reference: ChEMBL document CHEMBL3244203, “Absolute configuration of glycerol derivatives. 4. Synthesis and pharmacological activity of chiral 2-alkylaminomethylbenzodioxans, competitive alpha-adrenergic antagonists” (J Med Chem, 1977)
